Experimental data: US11383008B2, “Surface-modified polymeric substrates grafted with a properties-imparting compound using clip chemistry” (Centre National de la Recherche Scientifique (CNRS), priority 2016, dated 2022)

Experiment: Stability of MRI-visibility of grafted substrates after incubation in PBS
Type: physicochemical
Conditions: grafted on substrates (PP meshes, thread-like shape); two months in PBS medium (pH=7.4) at 37° C.; FIG. 9C
Method: Bruker 7T BIOSPEC 70/20, “mini-imaging” configuration (gradient BGA12 675 mt/m, resonator “bird cage” 35 mm). After a set of marker gradient echo sequences, a spin3D echo sequence was acquired (FOV 3*3*1 cm matrix 128*128*48, TR=3000 ms, TE=8 ms (TEeff=16), RF=8, acquisition time of 0:51) with an inversion delay of 1300 ms.
MGE 3D sequences with TR/TE 110/3 ms and angles of 75, 30 and 15° were acquired.
Stability of MRI-visibility for PP modified meshes after 2 months in saline phosphate buffer (pH 7.4, 37° C.) is shown in FIG. 9C.

4-Azidoaniline Modified Gd-Diethylene Triamine Pentaacetic Acid (Gd-DTPA-biN3) Complex
MRI image after incubation (stability of MRI-visibility): does not show any image degradation
